Drawing on patent US11299510B2, “Substituted pyridopyrrolopyrimidine ribonucleosides for therapeutic uses” (USTAV ORGANICKE CHEMIE A BIOCHEMIE AV CR, V.V.I., priority 2018, dated 2022), this text covers IC50 for five molecules.

pIC50: −log10 of the molar value.

Holding throughout (format): cell-based
In test [1] the test system is K562-Tax (human acute myeloid leukemia, paclitaxel resistant subline). Description: cytotoxic MTS test, K562-TAX. Particulars: K562-TAX cells. An excerpt:
(§1) To evaluate the antitumor activity of newly prepared compounds for in vitro conditions, we used cytotoxic MTS test (Nosková V. et al., Neoplasma 2002, 49, 418-425) on cell lines derived from normal tissues or tumors. Specifically, cell lines K562 (human acute myeloid leukemia); K562-Tax (human acute myeloid leukemia, paclitaxel resistant subline, overexpress multiple drug resistant protein PgP); CEM (T-lymfoblastic leukemia); CEM-DNR-bulk (T-lymfoblastic leukemia, doxorubicin resistant); A549 (human lung adenocarcinoma); HCT116p53 wt (human colorectal cancer, wild-type); HCT116p53−/−(human colorectal cancer, mutant p53) a U2OS (human bone osteosarcoma) were used. Express characteristics, susceptibility profiles of classic antitumor drugs as well as methodology of cytotoxic MTS test have been repeatedly published (Denizot, F.; Lang, R., J. Immunol. Meth. 1986, 89, 271-277; Noskova, V., see above; Šarek J. et al., J, Med. Chem., 2003, 46, 5402-5415).
(Formazan colour is commonly taken as a measure of viable cells.)

Test [2] deals with CCRF-CEM. The test is described as follows: cytotoxic MTS test, CCRF-CEM. As to conditions: Homo sapiens; CCRF-CEM cells.
Description: as §1

The test system of test [3] is U2OS (human bone osteosarcoma). The test is described as follows: cytotoxic MTS test, U2OS. As to conditions: U2OS cells.
Description: as §1

Test [4] relates to K562 (human acute myeloid leukemia). The test is described as follows: cytotoxic MTS test, K562. Particulars: K562 cells.
Description: as §1

Test [5] deals with HL 60. The test is described as follows: cytotoxic MTS test, HL 60. As to conditions: Homo sapiens; HL 60 cells.
Test [6] concerns MRC-5 (normal human fibroblasts). Description: cytotoxic MTS test, MRC-5. As to conditions: MRC5, MRC-5 cells.
Test [7] relates to HeLa. Description: cytotoxic MTS test, HeLa. As to conditions: Homo sapiens; HeLa cells.
Test [8] relates to A549 (human lung adenocarcinoma). The test is described as follows: cytotoxic MTS test, A549. Particulars: A549 cells.
Description: as §1

Test [9] relates to Hep G2. Description: cytotoxic MTS test, Hep G2. As to conditions: Homo sapiens, HepG2; Hep G2 cells.
The subject of test [10] is CEM-DNR-bulk (T-lymfoblastic leukemia, doxorubicin resistant). Description: cytotoxic MTS test, CEM-DNR. As to conditions: Homo sapiens; CEM-DNR cells.
Description: as §1

In test [11] the test system is HCT116p53 wt (human colorectal cancer, wild-type). Description: cytotoxic MTS test, HCT116. As to conditions: HCT-116, HCT116 cells.
Description: as §1

The test system of test [12] is CEM (T-lymfoblastic leukemia). The test is described as follows: cytotoxic MTS test, CEM. As to conditions: Homo sapiens, CCRF-CEM; CEM cells.
Description: as §1

Test [13] has as its system HCT116p53−/− (human colorectal cancer, mutant p53). Description: cytotoxic MTS test, HCT116p53. As to conditions: HCT116p53 cells.
Description: as §1

The test system of test [14] is BJ (normal human fibroblasts). The test is described as follows: cytotoxic MTS test, BJ. Particulars: BJ cells.

Take `OC[C@H]1O[C@@H](n2c3cnccc3c3c(-c4ccco4)ncnc32)[C@H](O)[C@@H]1O` [Compound 2f, 4-(furan-2-yl)-9-(β-D-ribofuranosyl)-9H-pyrido[4′,3′:4,5]pyrrolo[2,3-d]pyrimidine]: the pIC50 in test [1], in test [2], in test [3], in test [4], in test [5] and in test [6] was below 4.30 each time. The pIC50 in test [7], in test [8], in test [9], in test [10], in test [11] and in test [12] was below 4.30 in each case. Besides, the pIC50 in test [13] and in test [14] was below 4.30 throughout.
In the case of `OC[C@H]1O[C@@H](n2c3cnccc3c3c(-c4ccsc4)ncnc32)[C@H](O)[C@@H]1O` [Compound 2h, 4-(thiophen-3-yl)-9-(β-D-ribofuranosyl)-9H-pyrido[4′,3′:4,5]pyrrolo[2,3-d]pyrimidine], the pIC50 in test [1], in test [2], in test [3], in [4], in [5] and in test [6] was below 4.30 throughout. The negative logarithm of the IC50 (pIC50) in test [7], in test [8], in test [9], in test [10], in test [11] and in test [12] was below 4.30 each time. Further, the negative logarithm of the IC50 (pIC50) in test [13] and in test [14] was below 4.30 throughout.
Regarding `COc1ncnc2c1c1ncccc1n2[C@@H]1O[C@H](CO)[C@@H](O)[C@H]1O` [Compound 1a, 4-methoxy-9-(β-D-ribofuranosyl)-9H-pyrido[2′,3′:4,5]pyrrolo[2,3-d]pyrimidine], the negative logarithm of the IC50 (pIC50) in test [1], in [2], in test [3], in test [4], in test [5] and in test [6] was below 4.30 throughout. For the same molecule, the pIC50 in test [7], in [8], in test [9], in test [10], in test [11] and in test [12] was below 4.30 each time. Further, the pIC50 in test [13] and in test [14] was below 4.30 each time.
As for `Nc1ncnc2c1c1ccncc1n2[C@@H]1O[C@H](CO)[C@@H](O)[C@H]1O` [Compound 2c, 4-amino-9-(β-D-ribofuranosyl)-9H-pyrido[4′,3′:4,5]pyrrolo[2,3-d]pyrimidine], the negative-log IC50 (pIC50) (commonly the IC50 on a negative log10 scale, so that one unit is a factor of ten) was 5.00 to 6.05 in test [1]; 6.05 to 6.70 in test [2]; 6.05 to 6.70 in test [3]; 6.05 to 6.70 in test [4]; 6.05 to 6.70 in test [5]; below 4.30 in test [6]. For the same molecule, the pIC50 is 5.00 to 6.05 in test [7]; 5.00 to 6.05 in [8]; 6.05 to 6.70 in [9]; 5.00 to 6.05 in test [10]; 6.05 to 6.70 in test [11]; 6.05 to 6.70 in [12]. Besides, the pIC50 is 6.05 to 6.70 in [13] and 5.00 to 6.05 in test [14].
Take `COc1ncnc2c1c1ccncc1n2[C@@H]1O[C@H](CO)[C@@H](O)[C@H]1O` [Compound 2a, 4-methoxy-9-(β-D-ribofuranosyl)-9H-pyrido[4′,3′:4,5]pyrrolo[2,3-d]pyrimidine]: the negative-log IC50 (pIC50) is 5.00 to 6.05 in [1]; 6.05 to 6.70 in test [2]; 5.00 to 6.05 in test [3]; 5.00 to 6.05 in test [4]; 6.05 to 6.70 in [5]; below 4.30 in [6]. Moreover, the pIC50 was 5.00 to 6.05 in test [7]; below 4.30 in test [8]; 5.00 to 6.05 in test [9]; 5.00 to 6.05 in test [10]; 5.00 to 6.05 in test [11]; 5.00 to 6.05 in [12]. The negative logarithm of the IC50 (pIC50) was 5.00 to 6.05 in [13] and below 4.30 in test [14].
